The results in this text go back to US9232797B2, “Pesticidal composition and its use” (SUMITOMO CHEMICAL COMPANY, LIMITED, priority 2010, dated 2016).

The test system of this experiment is Rhizoctonia solani. The experiment can be described thus: Soybean seed treatment test in soil contaminated by Rhizoctonia solani (disease control efficacy). Particulars: seed treatment with carboxamide compound alone 0.2 g/100 kg of seeds; soybean cultivated 20 days in contaminated soil; versus non-treated plot. It counts as in vivo, Rhizoctonia solani on soybean (variety: Natto shoryu). The protocol: A cyclohexanone solution (100 microL) containing prescribed amount (weight) of a test compound was applied on seeds of soybean (variety: Natto shoryu) (10 g) by using a rotary apparatus for seed treatment (Seed dresser, manufactured by Hans-Ulrich Hege GmbH).
One day after the treatment, plastic pot was filled with soil contaminated by Rhizoctonia solani, and the seeds treated with the test compounds were seeded in the soil and cultivated in a glass-greenhouse for 20 days (hereinafter referred to as “treated plot”).
Thereafter, the presence of disease caused by Rhizoctonia solani in the young plants which germinated from each seed was observed and disease severity was calculated according to the following calculation formula (1).
On the other hand, seeds of soybean which were not treated as above were cultivated in the same way as above (hereinafter referred to as “non-treated plot”) and the disease severity in “non-treated plot” was calculated in the same way as above “treated plot”. On the basis of the above disease severity in “treated plot” and “non-treated plot”, efficacy in “treated plot” was evaluated according to the following calculation formula (2). […]

On to `CC1CC(C)(C)c2cccc(NC(=O)c3cn(C)nc3C(F)F)c21` (stereo not shown) [carboxamide compound (I)], for which the “efficacy (%)” value is listed as 42.1%.
